The values below are quoted from earlier work in patent EP3021668B1, “EMULSIFIABLE CONCENTRATE COMPRISING PESTICIDE, ALKYL LACTATE, FATTY AMIDE AND ACETOPHENONE” (BASF SE, priority 2013, dated 2015).

Each structure is given as a SMILES string.

For data set [1] the following is noted: pure solvents; according to the Annex III of European Union Directive 67/548/EEC.
For data set [2] the following is noted: at 20 °C.

As to `CCCC[C@H](CC)COC(=O)C(C)O` (stereo partly drawn) [(S)-2-ethylhexyl lactate], the eye toxicity classification entry in data set [1] is given as “R36 "Irritating to eyes"”. In the case of `CC(=O)c1ccccc1` [acetophenone], the eye toxicity classification result in data set [1] is on record as “R36 "Irritating to eyes"”. `Cn1cc(C(=O)Nc2ccccc2-c2cc(F)c(F)c(F)c2)c(C(F)F)n1` [fluxapyroxad]: the soluble in water entry in data set [2] is “about 4 mg/l”. As for `COC(=O)N(OC)c1ccccc1COc1ccn(-c2ccc(Cl)cc2)n1` [pyraclostrobin], in data set [2], the soluble in water entry was “about 2 mg/l”.
